Laboratory results taken from patent publication US12122787B2, “Fused pyridone compound, and preparation method therefor and use thereof” (SHANGHAI JEMINCARE PHARMACEUTICALS CO., LTD, priority 2019, dated 2024).
Read-outs that look alike come from different tables or passages of the source.

Experiments:
[1] = system: phosphorylated ERK (Thr202/Tyr204) in NCI-H358 cells expressing mutant RAS(G12C); test: Inhibition of RAS-mediated signal transduction: phosphorylated ERK ELISA in NCI-H358 cells; assay type: cell-based; details: NCI-H358 cells, 2 hours of treatment, pERK normalized by Janus Green B; read-out: p-ERK IC50 (NCI H358)
[2] = In vivo pharmacokinetic evaluation in mice by intravenous injection and oral administration; details: male ICR mice
Protocol: In this experimental embodiment, in vivo pharmacokinetic evaluation was performed in mice by intravenous injection and oral administration.
Experimental methods and conditions: Male ICR mice were given a single dose of 1 mg/Kg (intravenous injection, solvent 5% DMSO+15% Solutol+80% saline) and 5 mg/Kg (intragastric administration, solvent 1% Tween80/2% HPMC/97% water) of the compound to be tested, respectively; 5 min, 15 min, 30 min, 1 hour, 2 hours, 4 hours, 6 hours, 8 hours, 24 hours after administration, blood was collected from the orbital vein, and each sample was collected at approximately 0.20 mL, anticoagulated with sodium heparin, placed on ice after collection, and centrifuged within 1 hour to separate the plasma for measurement. Plasma drug concentration in plasma was detected by liquid chromatography tandem mass spectrometry (LC/MS/MS) to calculate pharmacokinetic parameters.

[3] = system: NCI-H358 cells expressing KRAS-G12C; test: Growth inhibition of tumor cell line expressing KRAS-G12C (Cell Titer Glo), NCI-H358; assay type: cell-based
Protocol: (§1) The ability of the compounds of the present disclosure to inhibit the growth of cells expressing KRAS-G12C was evaluated by measuring the cell viability and calculating the GI50 values.
(§2) The tumor cell line NCI-H358 (ATCC catalogue number CRL-5807) expressing KRAS-G12C was cultured in RPMI medium supplemented with 10% fetal bovine serum and penicillin/streptomycin, and the tumor cell line MIA PaCa2 (ATCC CRL-1420) expressing KRAS-G12C was cultured in DMEM medium supplemented with 10% fetal bovine serum, 2.5% horse serum, and penicillin/streptomycin.
(§3) Cells NCI-H358 and MIA-Paca2 were inoculated into black transparent bottom 384-well plate (PerkinElmer catalogue number 6007460) with cell density of 1000 and 800 respectively, and the cells were allowed to adhere to the wall overnight (8-12 hours). After the cells adhered to the wall, the experimental group was added with the compound of the present disclosure diluted 5 times the concentration of the working solution (final concentration containing 0.1% dimethyl sulfoxide, i.e. DMSO); the control group was added with the same dilution as the experimental group (final concentration containing 0.1% DMSO). After 72 hours, Cell Titer Glo reagent (Promega catalogue number G7572) was used to detect ATP content according to the instruction method to determine the amount of cell proliferation. The brief operation steps were as follows: the cell plate was taken out and kept at normal temperature for equilibrium for 30 minutes; Cell Titer Glo reagent with the same volume as the culture was added; the culture plate was placed on a shaker for shaking and cracking for 2 minutes; the culture plate was left to stand at room temperature for 10 minutes; then the light signal value was read by microplate reader EnVision (PerkinElmer).
(§4) Data from all experimental groups were used to calculate the respective percent inhibition using the DMSO group, and the GI50 was calculated using the data processing software GraphPad to analyze the inhibition rates produced by the 9 compound dose concentrations diluted at ⅓-fold ratio.

[4] = system: MIA PaCa2 cells expressing KRAS-G12C; test: Growth inhibition of tumor cell line expressing KRAS-G12C (Cell Titer Glo), MIA PaCa2; assay type: cell-based; details: MIA-Paca2, 72 hours
Protocol: as §1, §2, §3, §4

[5] = intragastric administration 5 mg/kg vs intravenous 1 mg/kg
[6] = intragastric administration 5 mg/kg, plasma
[7] = intravenous administration 1 mg/kg, plasma
[8] = mouse, po, intragastric administration 5 mg/kg, plasma
[9] = mouse, intravenous administration 1 mg/kg, plasma

| SMILES | F (%) [2, 5] | AUCinf [2, 6] | Cmax [2, 6] | T1/2 [2, 6] | AUCinf [2, 7] | Cl [2, 7] | T1/2 [2, 7] | Vz [2, 7] | GI50 ([3]; NCI-H358, 72 hours) | GI50 [4] | GI50 ([4]; Homo sapiens, MIA PaCa-2, 72 h) | GI50 ([3]; Homo sapiens, NCI-H358, 72 h) | IC50 [1] | other results |
| --- | --- | --- | --- | --- | --- | --- | --- | --- | --- | --- | --- | --- | --- | --- |
| C=CC(=O)N1C[C@@H]2C(=O)N(CCN(C)C)c3c(c4cc(Cl)c(-c5c(F)cccc5OC)c(F)c4n(-c4c(C)ccnc4C(C)C)c3=O)N2C[C@H]1C (atropisomer, axis not shown) [Compound 27C] | 20.30% | 526.88 ng·h/mL | 133.67 ng/mL | 1.78 h | 519.01 ng·h/mL | 32.11 mL/min/kg | 1.76 h | 4893.44 mL/kg | 5 nM | 3 nM | – | – | 4 nM | – |
| C=CC(=O)N1CCN(c2nc(=O)n(-c3c(C)ccnc3C(C)C)c3nc(-c4c(O)cccc4F)c(F)cc23)[C@@H](C)C1 [AMG 510] | – | – | – | – | – | – | – | – | – | – | – | – | – | bioavailability ([2]; mouse, plasma, oral, intragastric administration 5 mg/kg vs intravenous 1 mg/kg): 17.6%; AUC(0-inf) [2, 8]: 155 ng·h/mL; half-life [2, 8]: 34.2 min; Cmax ([2]; mouse, po, intragastric administration 5 mg/kg, plasma, read-out: Cmax): 177 ng/mL; AUC(0-inf) [2, 9]: 176 ng·h/mL; clearance [2, 9]: 94.6 mL/min/kg; half-life [2, 9]: 15.6 min; Vd ([2]; mouse, intravenous administration 1 mg/kg, plasma, read-out: Vz): 2.16 L/kg |
| C=CC(=O)N1C[C@@H]2CN(CCCO)c3c(c4cc(F)c(-c5c(O)cccc5F)c(F)c4n(-c4c(C)ccnc4C(C)C)c3=O)N2C[C@H]1C [Compound 35A] | – | – | – | – | – | – | – | – | 53 nM | – | 2140 nM | – | 68 nM | – |
| C=CC(=O)N1C[C@@H]2CN(CC(=O)OC)c3c(c4cc(F)c(-c5c(O)cccc5F)c(F)c4n(-c4c(C)ccnc4C(C)C)c3=O)N2C[C@H]1C [Compound 38B] | – | – | – | – | – | – | – | – | – | – | 535 nM | 77 nM | 64 nM | – |

Now from value to molecule, other results behind:

| F (%) [2, 5] | AUCinf [2, 6] | Cmax [2, 6] | T1/2 [2, 6] | AUCinf [2, 7] | Cl [2, 7] | T1/2 [2, 7] | Vz [2, 7] | GI50 ([3]; NCI-H358, 72 hours) | GI50 [4] | GI50 ([4]; Homo sapiens, MIA PaCa-2, 72 h) | GI50 ([3]; Homo sapiens, NCI-H358, 72 h) | SMILES | IC50 [1] | other results |
| --- | --- | --- | --- | --- | --- | --- | --- | --- | --- | --- | --- | --- | --- | --- |
| 17.01% | 1984.18 ng·h/mL | 746.67 ng/mL | 3.96 h | 2333.44 ng·h/mL | 7.14 mL/min/kg | 5.99 h | 3706.60 mL/kg | 5 nM | 31 nM | – | – | C=CC(=O)N1CC2COc3c(c4cc(F)c(-c5c(O)cccc5F)c(F)c4n(-c4c(C)ccnc4C(C)C)c3=O)N2CC1C (single isomer, unassigned) [Compound 3B-2] | 6 nM | – |
| – | – | – | – | – | – | – | – | – | – | 211 nM | 20 nM | C=CC(=O)N1C[C@@H]2CN(C)c3c(c4cc(F)c(-c5c(O)cccc5F)c(F)c4n(-c4c(C)ccnc4C(C)C)c3=O)N2C[C@H]1C (single isomer, unassigned) [Compound 16A] | 17 nM | – |
